{
  "source": "ChEMBL document CHEMBL5537151",
  "about": "“Design, synthesis and bioactivity evaluation of novel fusion peptides and their CPT conjugates inducing effective anti-tumor responses on HER2 positive tumors” (Eur J Med Chem, 2024)",
  "key": {"[1]": {"test_system": "NCI-N87", "experiment": "cells", "conditions": "Homo sapiens, NCI-N87, 48 h", "description": "Cytotoxicity against HER-positive human NCI-N87 cells incubated for 48 hrs by CCK-8 assay"}, "[2]": {"test_system": "SK-OV-3", "experiment": "cells", "conditions": "Homo sapiens, SK-OV-3, 48 h", "description": "Cytotoxicity against HER-positive human SK-OV-3 cells incubated for 48 hrs by CCK-8 assay"}, "[3]": {"test_system": "SK-BR-3", "experiment": "cells", "conditions": "Homo sapiens, SK-BR-3, 48 h", "description": "Cytotoxicity against HER-positive human SK-BR-3 cells incubated for 48 hrs by CCK-8 assay"}, "[4]": {"test_system": "MDA-MB-231", "experiment": "cells", "conditions": "Homo sapiens, MDA-MB-231, 48 h", "description": "Cytotoxicity against HER-negative human MDA-MB-231 cells incubated for 48 hrs by CCK-8 assay"}, "[5]": {"experiment": "Cytotoxicity against HER-negative human MCF-10A cells incubated for 48 hrs by CCK-8 assay", "type": "toxicity, cell-based"}, "[6]": {"test_system": "SK-BR-3", "experiment": "Induction of apoptosis in human SK-BR-3 cells assessed as early apoptotic cells at 1 uM incubated for 24 hrs by Annexin V-FITC/PI staining based flow cytometry analysis (reference value: 2.80%)", "type": "functional"}, "[7]": {"experiment": "Toxicity in nude mouse xenografted with human SK-BR-3 cells assessed as change in alkaline phosphatase level at 8 umol/kg, iv administered every 3 days for 14 days", "type": "organism-based", "conditions": "in vivo, 336 h, dose 8 µmol/kg, time 14 day"}, "[8]": {"test_system": "SK-BR-3", "experiment": "Induction of apoptosis in human SK-BR-3 cells assessed as late apoptotic cells at 1 uM incubated for 24 hrs by Annexin V-FITC/PI staining based flow cytometry analysis (reference value: 1.11%)", "type": "functional"}, "[9]": {"test_system": "SK-BR-3", "experiment": "Induction of apoptosis in human SK-BR-3 cells assessed as live cells at 1 uM incubated for 24 hrs by Annexin V-FITC/PI staining based flow cytometry analysis (reference value: 94.6%)", "type": "functional"}, "[10]": {"experiment": "Toxicity in nude mouse xenografted with human SK-BR-3 cells assessed as change in albumin level at 8 umol/kg, iv administered every 3 days for 14 days", "type": "organism-based", "conditions": "in vivo, 336 h, dose 8 µmol/kg, time 14 day"}, "[11]": {"test_system": "SK-BR-3", "experiment": "Induction of apoptosis in human SK-BR-3 cells assessed as necrotic cells at 1 uM incubated for 24 hrs by Annexin V-FITC/PI staining based flow cytometry analysis (reference value: 1.49%)", "type": "functional"}, "[12]": {"experiment": "Toxicity in nude mouse xenografted with human SK-BR-3 cells assessed as change in total protein level at 8 umol/kg, iv administered every 3 days for 14 days", "type": "organism-based", "conditions": "in vivo, 336 h, dose 8 µmol/kg, time 14 day"}, "[13]": {"experiment": "Toxicity in nude mouse xenografted with human SK-BR-3 cells assessed as change in globulin level at 8 umol/kg, iv administered every 3 days for 14 days", "type": "organism-based", "conditions": "in vivo, 336 h, dose 8 µmol/kg, time 14 day"}, "[14]": {"experiment": "Toxicity in nude mouse xenografted with human SK-BR-3 cells assessed as increase in ALT level at 8 umol/kg, iv administered every 3 days for 14 days", "type": "organism-based", "conditions": "in vivo, 336 h, dose 8 µmol/kg, time 14 day"}, "[15]": {"experiment": "Toxicity in nude mouse xenografted with human SK-BR-3 cells assessed as increase in AST level at 8 umol/kg, iv administered every 3 days for 14 days", "type": "organism-based", "conditions": "in vivo, 336 h, dose 8 µmol/kg, time 14 day"}},
  "note": "Peptide text beside a SMILES is read from it. * marks the point of attachment. X7 = CCC1(OC(=O)CCCCCN2C(=O)CC(SC[C@H](N)C(=O)*)C2=O)C(=O)OCc2c1cc1n(c2=O)Cc2cc3ccccc3nc2-1; X4 = CCC1(OC(=O)OCCSSC[C@H](N)C(=O)*)C(=O)OCc2c1cc1n(c2=O)Cc2cc3ccccc3nc2-1; X3 = CCC1(OC(=O)CCSSC[C@H](N)C(=O)*)C(=O)OCc2c1cc1n(c2=O)Cc2cc3ccccc3nc2-1; X6 = CCC1(OC(=O)OCCS*)C(=O)OCc2c1cc1n(c2=O)Cc2cc3ccccc3nc2-1",
  "data": [
    {"smiles": "CC[C@H](C)[C@H](NC(=O)[C@@H]1CCCN1C(=O)[C@@H](NC(=O)[C@H](C)N)C(C)C)C(=O)N[C@@H](C)C(=O)N[C@@H](CCC(N)=O)C(=O)N[C@@H](CCCCN)C(=O)NCC(=O)N[C@@H](Cc1ccccc1)C(=O)N[C@@H](CC(C)C)C(=O)NCC(=O)N[C@@H](CSSCCOC(=O)OC1(CC)C(=O)OCc2c1cc1n(c2=O)Cc2cc3ccccc3nc2-1)C(=O)N[C@@H](CC(N)=O)C(=O)N1CCC[C@H]1C(=O)N[C@@H](CC(N)=O)C(=O)N[C@@H](Cc1c[nH]c2ccccc12)C(=O)NCC(=O)N[C@@H](CCCNC(=N)N)C(=O)N[C@@H](CO)C(=O)N[C@@H](Cc1c[nH]c2ccccc12)C(=O)N[C@@H](Cc1ccc(O)cc1)C(=O)N[C@@H](CC(N)=O)C(=O)N[C@@H](CCC(N)=O)C(=O)N[C@@H](CCCNC(=N)N)C(=O)N[C@@H](Cc1ccccc1)C(=O)N[C@@H](CCCCN)C(N)=O", "note": "(stereo not given in full) (H-AVPIAQKGFLGC(X6)NPNWGRSWYNQRFK-NH2)", "values": [
      {"measurement": "IC50", "setting": "[1]", "value": 3.04, "unit": "µM"},
      {"measurement": "IC50", "setting": "[2]", "value": 4.03, "unit": "µM"},
      {"measurement": "IC50", "setting": "[3]", "value": 0.85, "unit": "µM"},
      {"measurement": "IC50", "setting": "[4]", "value": 6.43, "unit": "µM"},
      {"measurement": "IC50 at 48 h", "setting": "[5]", "value": 18.2, "unit": "µM"}
    ]},
    {"smiles": "CC[C@H](C)[C@H](NC(=O)[C@@H]1CCCN1C(=O)[C@@H](NC(=O)[C@H](C)N)C(C)C)C(=O)N[C@@H](C)C(=O)N[C@@H](CCC(N)=O)C(=O)N[C@@H](CCCCN)C(=O)NCC(=O)N[C@@H](Cc1ccccc1)C(=O)N[C@@H](CC(C)C)C(=O)NCC(=O)N[C@@H](CC(N)=O)C(=O)N1CCC[C@H]1C(=O)N[C@@H](CC(N)=O)C(=O)N[C@@H](Cc1c[nH]c2ccccc12)C(=O)NCC(=O)N[C@@H](CCCNC(=N)N)C(=O)N[C@@H](CO)C(=O)N[C@@H](Cc1c[nH]c2ccccc12)C(=O)N[C@@H](Cc1ccc(O)cc1)C(=O)N[C@@H](CC(N)=O)C(=O)N[C@@H](CCC(N)=O)C(=O)N[C@@H](CCCNC(=N)N)C(=O)N[C@@H](Cc1ccccc1)C(=O)N[C@@H](CCCCNC(=O)[C@@H](N)CSSCCC(=O)OC1(CC)C(=O)OCc2c1cc1n(c2=O)Cc2cc3ccccc3nc2-1)C(N)=O", "note": "(stereo not given in full) (H-AVPIAQKGFLGNPNWGRSWYNQRFK(X3)-NH2)", "values": [
      {"measurement": "IC50", "setting": "[1]", "value": 8.01, "unit": "µM"},
      {"measurement": "IC50", "setting": "[2]", "value": 4.73, "unit": "µM"},
      {"measurement": "IC50", "setting": "[3]", "value": 2.3, "unit": "µM"},
      {"measurement": "IC50", "setting": "[4]", "value": 15.1, "unit": "µM"},
      {"measurement": "IC50 at 48 h", "setting": "[5]", "value": 28.4, "unit": "µM"}
    ]},
    {"smiles": "CC[C@H](C)[C@H](NC(=O)[C@@H]1CCCN1C(=O)[C@@H](NC(=O)[C@H](C)N)C(C)C)C(=O)N[C@@H](C)C(=O)N[C@@H](CCC(N)=O)C(=O)N[C@@H](CCCCN)C(=O)NCC(=O)N[C@@H](Cc1ccccc1)C(=O)N[C@@H](CC(C)C)C(=O)NCC(=O)N[C@@H](CC(N)=O)C(=O)N1CCC[C@H]1C(=O)N[C@@H](CC(N)=O)C(=O)N[C@@H](Cc1c[nH]c2ccccc12)C(=O)NCC(=O)N[C@@H](CCCNC(=N)N)C(=O)N[C@@H](CO)C(=O)N[C@@H](Cc1c[nH]c2ccccc12)C(=O)N[C@@H](Cc1ccc(O)cc1)C(=O)N[C@@H](CC(N)=O)C(=O)N[C@@H](CCC(N)=O)C(=O)N[C@@H](CCCNC(=N)N)C(=O)N[C@@H](Cc1ccccc1)C(=O)N[C@@H](CCCCNC(=O)[C@@H](N)CSSCCOC(=O)OC1(CC)C(=O)OCc2c1cc1n(c2=O)Cc2cc3ccccc3nc2-1)C(N)=O", "note": "(stereo not given in full) (H-AVPIAQKGFLGNPNWGRSWYNQRFK(X4)-NH2)", "values": [
      {"measurement": "IC50", "setting": "[1]", "value": 3.86, "unit": "µM"},
      {"measurement": "IC50", "setting": "[2]", "value": 6.17, "unit": "µM"},
      {"measurement": "IC50", "setting": "[3]", "value": 0.58, "unit": "µM"},
      {"measurement": "IC50", "setting": "[4]", "value": 4.73, "unit": "µM"},
      {"measurement": "IC50 at 48 h", "setting": "[5]", "value": 15.2, "unit": "µM"}
    ]},
    {"smiles": "CC[C@H](C)[C@H](NC(=O)[C@@H]1CCCN1C(=O)[C@@H](NC(=O)[C@H](C)N)C(C)C)C(=O)N[C@@H](C)C(=O)N[C@@H](CCC(N)=O)C(=O)N[C@@H](CCCCN)C(=O)NCC(=O)N[C@@H](Cc1ccccc1)C(=O)N[C@@H](CC(C)C)C(=O)NCC(=O)N[C@@H](CC(N)=O)C(=O)N1CCC[C@H]1C(=O)N[C@@H](CC(N)=O)C(=O)N[C@@H](Cc1c[nH]c2ccccc12)C(=O)NCC(=O)N[C@@H](CCCNC(=N)N)C(=O)N[C@@H](CO)C(=O)N[C@@H](Cc1c[nH]c2ccccc12)C(=O)N[C@@H](Cc1ccc(O)cc1)C(=O)N[C@@H](CC(N)=O)C(=O)N[C@@H](CCC(N)=O)C(=O)N[C@@H](CCCNC(=N)N)C(=O)N[C@@H](Cc1ccccc1)C(=O)N[C@@H](CCCCNC(=O)[C@@H](N)CSC1CC(=O)N(CCCCCC(=O)OC2(CC)C(=O)OCc3c2cc2n(c3=O)Cc3cc4ccccc4nc3-2)C1=O)C(N)=O", "note": "(stereo not given in full) (H-AVPIAQKGFLGNPNWGRSWYNQRFK(X7)-NH2)", "values": [
      {"measurement": "IC50", "setting": "[1]", "value": 24.2, "unit": "µM"},
      {"measurement": "IC50", "setting": "[2]", "value": "> 50", "unit": "µM"},
      {"measurement": "IC50", "setting": "[3]", "value": 12.6, "unit": "µM"},
      {"measurement": "IC50", "setting": "[4]", "value": 31.4, "unit": "µM"},
      {"measurement": "IC50 at 48 h", "setting": "[5]", "value": "> 50", "unit": "µM"}
    ]},
    {"smiles": "CC[C@@]1(O)C(=O)OCc2c1cc1n(c2=O)Cc2cc3ccccc3nc2-1", "note": "[CAMPTOTHECIN]", "values": [
      {"measurement": "Activity", "setting": "[6]", "value": 27.3, "unit": "%"},
      {"measurement": "IC50", "setting": "[1]", "value": 2.07, "unit": "µM"},
      {"measurement": "IC50", "setting": "[2]", "value": 4.07, "unit": "µM"},
      {"measurement": "Activity", "setting": "[7]", "value": "Non-Toxic"},
      {"measurement": "IC50", "setting": "[3]", "value": 0.38, "unit": "µM"},
      {"measurement": "Activity", "setting": "[8]", "value": 16.9, "unit": "%"},
      {"measurement": "Activity", "setting": "[9]", "value": 54.9, "unit": "%"},
      {"measurement": "Activity", "setting": "[10]", "value": "Non-Toxic"},
      {"measurement": "Activity", "setting": "[11]", "value": 0.94, "unit": "%"},
      {"measurement": "IC50", "setting": "[4]", "value": 0.53, "unit": "µM"},
      {"measurement": "Activity", "setting": "[12]", "value": "Non-Toxic"},
      {"measurement": "Activity", "setting": "[13]", "value": "Non-Toxic"},
      {"measurement": "Activity", "setting": "[14]", "value": "Toxic"},
      {"measurement": "IC50 at 48 h", "setting": "[5]", "value": 3.02, "unit": "µM"},
      {"measurement": "Activity", "setting": "[15]", "value": "Toxic"}
    ]}
  ]
}
